Measured values as given in patent US9636418B2 (priority 2013, dated 2017).
pIC50: −log10 of the molar value. Where “and” joins values, the source holds several entries; their conditions need not be identical. Identical values can stand only once.

Tests used:
Assay in all cases: cell-based
hNav1.7 = hNav1.7 (Homo sapiens, UniProt Q15858); settings: IonWorks Quattro; read-out: IC50 Nav1.7
hNav1.5 = hNav1.5 (Homo sapiens, UniProt Q14524); settings: IonWorks Quattro; read-out: IC50 Nav1.5
hNav1.4 = hNav1.4 (Homo sapiens, UniProt P35499); settings: for pIC50: IonWorks Quattro, read-out: IC50 Nav1.4
hNav1.3 = hNav1.3 (Homo sapiens, UniProt Q9NY46); settings: IonWorks Quattro; read-out: IC50 Nav1.3
hNav1.3, sequence (Q9NY46 whole entry): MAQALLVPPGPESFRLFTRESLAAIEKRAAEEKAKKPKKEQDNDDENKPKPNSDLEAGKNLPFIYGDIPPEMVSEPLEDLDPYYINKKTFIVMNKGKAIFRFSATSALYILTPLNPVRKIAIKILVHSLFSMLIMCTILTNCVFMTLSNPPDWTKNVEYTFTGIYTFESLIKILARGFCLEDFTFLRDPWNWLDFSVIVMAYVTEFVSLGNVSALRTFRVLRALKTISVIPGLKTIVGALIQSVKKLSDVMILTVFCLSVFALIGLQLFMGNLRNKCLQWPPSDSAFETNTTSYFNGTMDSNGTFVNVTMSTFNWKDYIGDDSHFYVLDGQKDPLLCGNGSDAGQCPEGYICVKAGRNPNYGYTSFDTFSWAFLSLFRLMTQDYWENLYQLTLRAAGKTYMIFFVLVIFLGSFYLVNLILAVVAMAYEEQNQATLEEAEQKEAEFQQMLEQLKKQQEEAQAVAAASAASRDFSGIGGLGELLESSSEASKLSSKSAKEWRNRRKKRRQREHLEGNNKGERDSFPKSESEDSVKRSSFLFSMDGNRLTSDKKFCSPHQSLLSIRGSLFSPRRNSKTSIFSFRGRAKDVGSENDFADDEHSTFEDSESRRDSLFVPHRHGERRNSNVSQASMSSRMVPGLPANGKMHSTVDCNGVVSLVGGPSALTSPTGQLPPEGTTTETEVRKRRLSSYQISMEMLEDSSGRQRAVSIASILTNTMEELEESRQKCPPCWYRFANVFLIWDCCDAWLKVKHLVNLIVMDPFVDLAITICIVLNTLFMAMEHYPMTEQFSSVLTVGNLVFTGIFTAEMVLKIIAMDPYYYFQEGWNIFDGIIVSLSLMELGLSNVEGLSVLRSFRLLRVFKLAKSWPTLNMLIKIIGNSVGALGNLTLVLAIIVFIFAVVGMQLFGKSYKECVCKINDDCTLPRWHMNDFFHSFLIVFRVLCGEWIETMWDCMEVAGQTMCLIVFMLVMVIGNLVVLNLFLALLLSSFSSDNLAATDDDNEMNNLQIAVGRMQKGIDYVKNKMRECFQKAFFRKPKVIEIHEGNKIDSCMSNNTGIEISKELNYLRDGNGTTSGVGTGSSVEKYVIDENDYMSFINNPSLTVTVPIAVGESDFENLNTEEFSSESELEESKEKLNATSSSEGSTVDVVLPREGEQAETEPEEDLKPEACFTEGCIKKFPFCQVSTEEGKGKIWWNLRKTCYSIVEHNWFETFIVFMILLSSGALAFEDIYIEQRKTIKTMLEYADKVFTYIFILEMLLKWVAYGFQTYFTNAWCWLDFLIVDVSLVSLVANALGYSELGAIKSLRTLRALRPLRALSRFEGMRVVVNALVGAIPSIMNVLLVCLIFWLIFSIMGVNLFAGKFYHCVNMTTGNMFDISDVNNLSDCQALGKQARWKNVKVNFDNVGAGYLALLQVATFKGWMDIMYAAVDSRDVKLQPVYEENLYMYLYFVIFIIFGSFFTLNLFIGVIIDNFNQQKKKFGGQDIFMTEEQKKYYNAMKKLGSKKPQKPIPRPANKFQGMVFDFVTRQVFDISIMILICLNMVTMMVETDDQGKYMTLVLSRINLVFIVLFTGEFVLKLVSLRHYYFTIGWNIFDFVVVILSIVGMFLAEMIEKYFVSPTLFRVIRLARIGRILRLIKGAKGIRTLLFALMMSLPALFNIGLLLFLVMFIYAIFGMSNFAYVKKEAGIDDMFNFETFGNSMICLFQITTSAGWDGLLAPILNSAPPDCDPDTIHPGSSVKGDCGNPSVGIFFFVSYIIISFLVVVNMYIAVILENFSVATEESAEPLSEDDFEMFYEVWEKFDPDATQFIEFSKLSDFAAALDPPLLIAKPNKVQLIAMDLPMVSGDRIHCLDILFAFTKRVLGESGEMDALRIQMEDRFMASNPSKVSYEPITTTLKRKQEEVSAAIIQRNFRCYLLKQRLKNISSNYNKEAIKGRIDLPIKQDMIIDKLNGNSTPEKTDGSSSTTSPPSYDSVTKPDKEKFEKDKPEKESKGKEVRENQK

hNav1.7, sequence (Q15858 whole entry): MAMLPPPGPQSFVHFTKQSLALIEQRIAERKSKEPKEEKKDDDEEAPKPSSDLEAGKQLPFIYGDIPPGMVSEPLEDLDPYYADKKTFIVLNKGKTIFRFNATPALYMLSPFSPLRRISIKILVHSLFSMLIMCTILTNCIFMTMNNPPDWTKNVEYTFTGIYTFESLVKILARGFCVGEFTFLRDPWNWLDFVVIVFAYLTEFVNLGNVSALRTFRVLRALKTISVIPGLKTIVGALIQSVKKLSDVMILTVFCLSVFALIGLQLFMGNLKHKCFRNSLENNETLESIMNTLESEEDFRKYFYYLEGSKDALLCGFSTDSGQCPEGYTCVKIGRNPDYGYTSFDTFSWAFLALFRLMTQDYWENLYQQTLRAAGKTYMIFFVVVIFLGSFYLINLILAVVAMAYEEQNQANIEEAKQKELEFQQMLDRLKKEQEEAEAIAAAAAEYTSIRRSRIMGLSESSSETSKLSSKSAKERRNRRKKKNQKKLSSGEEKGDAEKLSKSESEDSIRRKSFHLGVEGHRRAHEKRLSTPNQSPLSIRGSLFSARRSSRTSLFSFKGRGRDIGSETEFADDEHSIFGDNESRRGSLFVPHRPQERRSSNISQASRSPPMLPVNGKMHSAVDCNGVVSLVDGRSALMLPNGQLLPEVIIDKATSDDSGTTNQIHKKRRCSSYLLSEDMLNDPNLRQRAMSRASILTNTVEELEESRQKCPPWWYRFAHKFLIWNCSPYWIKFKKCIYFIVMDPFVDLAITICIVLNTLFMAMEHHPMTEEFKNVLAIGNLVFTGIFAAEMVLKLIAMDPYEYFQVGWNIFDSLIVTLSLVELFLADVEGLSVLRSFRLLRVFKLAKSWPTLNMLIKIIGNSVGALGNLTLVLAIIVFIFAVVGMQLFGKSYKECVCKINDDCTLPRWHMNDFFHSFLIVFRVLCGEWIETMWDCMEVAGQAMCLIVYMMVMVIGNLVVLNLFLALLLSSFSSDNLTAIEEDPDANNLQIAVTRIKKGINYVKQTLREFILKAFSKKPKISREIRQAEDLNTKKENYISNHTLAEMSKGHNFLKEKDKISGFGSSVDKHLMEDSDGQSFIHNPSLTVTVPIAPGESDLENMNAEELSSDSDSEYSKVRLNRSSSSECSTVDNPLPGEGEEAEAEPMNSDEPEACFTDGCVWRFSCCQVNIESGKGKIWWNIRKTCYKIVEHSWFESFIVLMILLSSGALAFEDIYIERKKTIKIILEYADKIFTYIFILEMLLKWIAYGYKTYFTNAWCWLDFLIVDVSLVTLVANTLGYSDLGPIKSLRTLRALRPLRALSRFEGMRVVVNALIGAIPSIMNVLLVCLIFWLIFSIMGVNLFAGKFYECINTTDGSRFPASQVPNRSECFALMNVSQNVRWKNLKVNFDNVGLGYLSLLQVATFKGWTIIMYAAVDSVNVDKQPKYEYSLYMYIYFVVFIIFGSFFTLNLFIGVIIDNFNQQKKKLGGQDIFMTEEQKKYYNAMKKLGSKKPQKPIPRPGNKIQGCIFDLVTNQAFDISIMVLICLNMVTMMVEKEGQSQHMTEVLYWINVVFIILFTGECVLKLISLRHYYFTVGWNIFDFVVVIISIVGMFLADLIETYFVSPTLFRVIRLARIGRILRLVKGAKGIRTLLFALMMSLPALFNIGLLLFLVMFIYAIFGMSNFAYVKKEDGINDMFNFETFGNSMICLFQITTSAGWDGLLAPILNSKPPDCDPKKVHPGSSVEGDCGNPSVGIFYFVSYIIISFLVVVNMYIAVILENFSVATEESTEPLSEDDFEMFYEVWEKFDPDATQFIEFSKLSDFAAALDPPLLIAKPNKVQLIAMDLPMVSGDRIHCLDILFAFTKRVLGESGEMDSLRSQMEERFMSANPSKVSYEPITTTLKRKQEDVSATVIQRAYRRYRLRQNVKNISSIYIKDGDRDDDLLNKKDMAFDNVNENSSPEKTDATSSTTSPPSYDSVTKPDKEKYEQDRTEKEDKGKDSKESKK

`CC[C@H](C)[C@H](NC(=O)[C@H](Cc1cn(CCCOCCOCCOCCOCCOCCOCCOCCOCCOCCOCCN)nn1)NC(=O)[C@H](CCCCN)NC(=O)[C@H](CCCNC(=N)N)NC(=O)[C@@H]1CSSC[C@@H]2NC(=O)[C@H](C)NC(=O)[C@H](CCCNC(=N)N)NC(=O)[C@H](CCCCN)NC(=O)[C@H](CO)NC(=O)[C@H](CC(=O)O)NC(=O)[C@@H]3CSSC[C@H](NC(=O)[C@H](CCC(=O)O)NC(=O)[C@H](CC(C)C)NC(=O)CNC(=O)[C@H](CCC(=O)O)NC(=O)[C@H](CSSC[C@H](NC(=O)[C@@H](N)Cc4ccc(O)cc4)C(=O)N[C@@H](CCC(N)=O)C(=O)N[C@@H](CCCCN)C(=O)N[C@@H](Cc4c[nH]c5ccccc45)C(=O)N[C@@H](CCSC)C(=O)N[C@@H](Cc4c[nH]c5ccccc45)C(=O)N[C@@H]([C@@H](C)O)C(=O)N3)NC2=O)C(=O)N[C@@H](CCCCN)C(=O)N[C@@H](CC(C)C)C(=O)N[C@@H](Cc2c[nH]c3ccccc23)C(=O)N1)C(N)=O` [compound 187] gave a pIC50 (hNav1.7) of 5.75, a pIC50 (hNav1.5) of 4.81 and a pIC50 (hNav1.4) of under 5.30. It also gave a Nav1.4/Nav1.7 (hNav1.4; ratio of IonWorks Quattro IC50 values) of 3 and a pIC50 (hNav1.3) of under 5.30.

With `CC[C@H](C)[C@H](NC(=O)[C@H](Cc1ccc(O)cc1)NC(=O)[C@H](CCCCN)NC(=O)[C@H](CCCNC(=N)N)NC(=O)[C@@H]1CSSC[C@@H]2NC(=O)[C@H](C)NC(=O)[C@H](CCCNC(=N)N)NC(=O)[C@H](CCCCN)NC(=O)[C@H](CO)NC(=O)[C@H](CC(=O)O)NC(=O)[C@@H]3CSSC[C@H](NC(=O)[C@H](CCC(=O)O)NC(=O)[C@H](CC(C)C)NC(=O)CNC(=O)[C@H](CCC(=O)O)NC(=O)[C@H](CSSC[C@H](NC(=O)[C@@H](N)Cc4ccc(O)cc4)C(=O)N[C@@H](CCC(N)=O)C(=O)N[C@@H](CCCCN)C(=O)N[C@@H](Cc4ccc(O)cc4)C(=O)N[C@@H](CCSC)C(=O)N[C@@H](Cc4c[nH]c5ccccc45)C(=O)N[C@@H]([C@@H](C)O)C(=O)N3)NC2=O)C(=O)N[C@@H](CCCCN)C(=O)N[C@@H](CC(C)C)C(=O)N[C@@H](Cc2c[nH]c3ccccc23)C(=O)N1)C(N)=O` [compound 194] the pIC50 (hNav1.7) was 6.04 and 5.60, the pIC50 (hNav1.5) was under 5.30 and the pIC50 (hNav1.4) was under 5.30. It also gave a pIC50 (hNav1.3) of under 5.30.

`CC[C@H](C)[C@H](NC(=O)[C@H](Cc1ccc(O)cc1)NC(=O)[C@H](CCCCN)NC(=O)[C@H](CCCNC(=N)N)NC(=O)[C@@H]1CSSC[C@@H]2NC(=O)[C@H](C)NC(=O)[C@H](CCCNC(=N)N)NC(=O)[C@H](CCCCN)NC(=O)[C@H](CO)NC(=O)[C@H](CC(=O)O)NC(=O)[C@@H]3CSSC[C@H](NC(=O)[C@H](CCC(=O)O)NC(=O)[C@H](CC(C)C)NC(=O)CNC(=O)[C@H](CCC(=O)O)NC(=O)[C@H](CSSC[C@H](NC(=O)[C@@H](N)Cc4ccc(O)cc4)C(=O)N[C@@H](CCC(N)=O)C(=O)N[C@@H](CCCCN)C(=O)N[C@@H](C(C)C)C(=O)N[C@@H](CCSC)C(=O)N[C@@H](Cc4c[nH]c5ccccc45)C(=O)N[C@@H]([C@@H](C)O)C(=O)N3)NC2=O)C(=O)N[C@@H](CCCCN)C(=O)N[C@@H](CC(C)C)C(=O)N[C@@H](Cc2c[nH]c3ccccc23)C(=O)N1)C(N)=O` [compound 195] gave a pIC50 (hNav1.7) of 5.42, a pIC50 (hNav1.5) of under 5.30 and a pIC50 (hNav1.4) of under 5.30. For the same compound, the pIC50 (hNav1.3) was under 5.30.

In the case of `CC[C@H](C)[C@H](NC(=O)[C@H](Cc1ccc(O)cc1)NC(=O)[C@H](CCCCN)NC(=O)[C@H](CCCNC(=N)N)NC(=O)[C@@H]1CSSC[C@@H]2NC(=O)[C@H](C)NC(=O)[C@H](CCCNC(=N)N)NC(=O)[C@H](CCCCN)NC(=O)[C@H](CO)NC(=O)[C@H](CC(=O)O)NC(=O)[C@@H]3CSSC[C@H](NC(=O)[C@H](CCC(=O)O)NC(=O)[C@H](CC(C)C)NC(=O)CNC(=O)[C@H](CCC(=O)O)NC(=O)[C@H](CSSC[C@H](NC(=O)[C@@H](N)Cc4ccc(O)cc4)C(=O)N[C@@H](CCC(N)=O)C(=O)N[C@@H](CCCCN)C(=O)N[C@@H](CC(C)C)C(=O)N[C@@H](CCSC)C(=O)N[C@@H](Cc4c[nH]c5ccccc45)C(=O)N[C@@H]([C@@H](C)O)C(=O)N3)NC2=O)C(=O)N[C@@H](CCCCN)C(=O)N[C@@H](CC(C)C)C(=O)N[C@@H](Cc2c[nH]c3ccccc23)C(=O)N1)C(N)=O` [compound 196], the pIC50 (hNav1.7) was under 5.30, the pIC50 (hNav1.5) was under 5.30 and the pIC50 (hNav1.4) was under 5.30. For the same compound, the pIC50 (hNav1.3) was under 5.30.

`CCC[C@@H]1NC(=O)[C@H](CCCCN)NC(=O)[C@H](CCC(N)=O)NC(=O)[C@@H](NC(=O)[C@@H](N)Cc2ccc(O)cc2)CSSC[C@@H]2NC(=O)[C@@H]3CSSC[C@@H](C(=O)N[C@@H](CCCNC(=N)N)C(=O)N[C@@H](CCCCN)C(=O)N[C@@H](Cc4ccc(O)cc4)C(=O)N[C@H](C(N)=O)[C@@H](C)CC)NC(=O)[C@H](Cc4c[nH]c5ccccc45)NC(=O)[C@H](CC(C)C)NC(=O)[C@H](CCCCN)NC(=O)[C@H](CSSC[C@H](NC(=O)[C@H]([C@@H](C)O)NC(=O)[C@H](Cc4c[nH]c5ccccc45)NC(=O)[C@H](CCSC)NC1=O)C(=O)N[C@@H](CC(=O)O)C(=O)N[C@@H](CO)C(=O)N[C@@H](CCCCN)C(=O)N[C@@H](CCCNC(=N)N)C(=O)N[C@@H](C)C(=O)N3)NC(=O)[C@H](CCC(=O)O)NC(=O)[C@H](CC(C)C)NC(=O)CNC(=O)[C@H](CCC(=O)O)NC2=O` [compound 198] was tested, and the pIC50 (hNav1.7) was 5.48, the pIC50 (hNav1.5) was under 5.30 and the pIC50 (hNav1.4) was under 5.30. It also gave a pIC50 (hNav1.3) of under 5.30.

Compound `CC[C@H](C)[C@H](NC(=O)[C@H](Cc1ccc(O)cc1)NC(=O)[C@H](CCCCN)NC(=O)[C@H](CCCNC(=N)N)NC(=O)[C@@H]1CSSC[C@@H]2NC(=O)[C@H](C)NC(=O)[C@H](CCCNC(=N)N)NC(=O)[C@H](CCCCN)NC(=O)[C@H](CO)NC(=O)[C@H](CC(=O)O)NC(=O)[C@@H]3CSSC[C@H](NC(=O)[C@H](CCC(=O)O)NC(=O)[C@H](CC(C)C)NC(=O)CNC(=O)[C@H](CCC(=O)O)NC(=O)[C@H](CSSC[C@H](NC(=O)[C@@H](N)Cc4ccc(O)cc4)C(=O)N[C@@H](CCC(N)=O)C(=O)N[C@@H](CCCCN)C(=O)N[C@@H](CCCNC(N)=O)C(=O)N[C@@H](CCSC)C(=O)N[C@@H](Cc4c[nH]c5ccccc45)C(=O)N[C@@H]([C@@H](C)O)C(=O)N3)NC2=O)C(=O)N[C@@H](CCCCN)C(=O)N[C@@H](CC(C)C)C(=O)N[C@@H](Cc2c[nH]c3ccccc23)C(=O)N1)C(N)=O` [compound 199] has a pIC50 (hNav1.7) of under 5.30, a pIC50 (hNav1.5) of under 5.30 and a pIC50 (hNav1.4) of under 5.30. For the same compound, the pIC50 (hNav1.3) was under 5.30.

`CC[C@H](C)[C@H](NC(=O)[C@H](Cc1ccc(O)cc1)NC(=O)[C@H](CCCCN)NC(=O)[C@H](CCCNC(=N)N)NC(=O)[C@@H]1CSSC[C@@H]2NC(=O)[C@H](C)NC(=O)[C@H](CCCNC(=N)N)NC(=O)[C@H](CCCCN)NC(=O)[C@H](CO)NC(=O)[C@H](CC(=O)O)NC(=O)[C@@H]3CSSC[C@H](NC(=O)[C@H](CCC(=O)O)NC(=O)[C@H](CC(C)C)NC(=O)CNC(=O)[C@H](CCC(=O)O)NC(=O)[C@H](CSSC[C@H](NC(=O)[C@@H](N)Cc4ccc(O)cc4)C(=O)N[C@@H](CCC(N)=O)C(=O)N[C@@H](CCCCN)C(=O)N[C@@H](CCCCN)C(=O)N[C@@H](CCSC)C(=O)N[C@@H](Cc4c[nH]c5ccccc45)C(=O)N[C@@H]([C@@H](C)O)C(=O)N3)NC2=O)C(=O)N[C@@H](CCCCN)C(=O)N[C@@H](CC(C)C)C(=O)N[C@@H](Cc2c[nH]c3ccccc23)C(=O)N1)C(N)=O` [compound 200] gave a pIC50 (hNav1.7) of under 5.30, a pIC50 (hNav1.5) of under 5.30 and a pIC50 (hNav1.4) of under 5.30. It also gave a pIC50 (hNav1.3) of under 5.30.
